Values belong to the compound of their own block, whether it stands above or below them.
How the values were obtained:
[1] = Cytotoxicity against human MRC5 cells assessed as reduction in cell viability incubated for 24 hrs by MTT assay; format: toxicity, cell-based
[2] = test system: MCF7; experiment: Cytotoxicity against human MCF7 cells assessed as reduction in cell viability incubated for 72 hrs by MTT assay; format: functional, cell-based; conditions: MCF7, 72 h
[3] = test system: HeLa; experiment: Antiproliferative activity against human HeLa cells assessed as cell growth inhibition incubated for 72 hrs by Calcein AM staining based fluorescence assay; format: functional
[4] = test system: Caco-2; experiment: Cytotoxicity against human Caco-2 cells assessed as reduction in cell viability incubated for 24 hrs by MTT assay; format: functional, cell-based; conditions: Caco-2, 24 h
[5] = test system: M4Beu cell line; experiment: Cytotoxicity against human M4Beu cell line assessed as inhibition of cell growth incubated for 14 days by crystal violet staining based assay; format: functional; conditions: 336 h
[6] = test system: HL-60; experiment: Antiproliferative activity against human HL-60 cells assessed as cell growth inhibition incubated for 72 hrs by Calcein AM staining based fluorescence assay; format: functional; conditions: HL-60, 72 h
[7] = test system: MCF7; experiment: Cytotoxicity against human MCF7 cells assessed as reduction in cell viability incubated for 24 hrs by MTT assay; format: functional, cell-based; conditions: MCF7, 24 h
[8] = test system: CCRF-CEM; experiment: Antiproliferative activity against human CEM cells assessed as cell growth inhibition incubated for 72 hrs by Calcein AM staining based fluorescence assay; format: functional
[9] = test system: G-361; experiment: Antiproliferative activity against human G361 cells assessed as cell growth inhibition incubated for 72 hrs by Beckman Coulter counting method; format: functional, cell-based; conditions: G-361, 72 h
[10] = test system: HeLa; experiment: Cytotoxicity against human HeLa cells assessed as reduction in cell viability incubated for 48 hrs by MTT assay; format: functional, cell-based
[11] = test system: HeLa; experiment: Cytotoxicity against human HeLa cells assessed as reduction in cell viability incubated for 24 hrs by MTT assay; format: functional, cell-based
[12] = test system: HT-29; experiment: Antiproliferative activity against human HT-29 cells assessed as cell growth inhibition incubated for 72 hrs by Beckman Coulter counting method; format: functional, cell-based; conditions: HT-29, 72 h
[13] = test system: MCF7; experiment: Antiproliferative activity against human MCF7 cells assessed as cell growth inhibition incubated for 72 hrs by Calcein AM staining based fluorescence assay; format: functional; conditions: MCF7, 72 h
[14] = test system: MIA PaCa-2; experiment: Cytotoxicity against human MIA PaCa-2 cells assessed as reduction in cell viability incubated for 48 hrs by MTT assay; format: functional, cell-based; conditions: MIA PaCa-2, 48 h
[15] = Antiproliferative activity against human HS27 cells assessed as cell growth inhibition incubated for 72 hrs by Beckman Coulter counting method; format: toxicity, cell-based
[16] = test system: OVCAR-3; experiment: Cytotoxicity against human OVCAR-3 cells assessed as reduction in cell viability incubated for 72 hrs by MTT assay; format: functional, cell-based; conditions: OVCAR-3, 72 h
[17] = test system: HeLa; experiment: Cytotoxicity against human HeLa cells assessed as reduction in cell viability incubated for 72 hrs by MTT assay; format: functional, cell-based
[18] = Antiproliferative activity against human PZ-HPV-7 cells assessed as reduction in cell viability incubated for 48 to 96 hrs by crystal violet staining assay; format: toxicity, cell-based; conditions: time 48-96 hrs
[19] = test system: A-375; experiment: Antiproliferative activity against human A-375 cells assessed as cell growth inhibition incubated for 72 hrs by Beckman Coulter counting method; format: functional, cell-based; conditions: A-375, 72 h
[20] = test system: Caco-2; experiment: Cytotoxicity against human Caco-2 cells assessed as reduction in cell viability incubated for 72 hrs by MTT assay; format: functional, cell-based; conditions: Caco-2, 72 h
[21] = test system: MIA PaCa-2; experiment: Cytotoxicity against human MIA PaCa-2 cells assessed as reduction in cell viability incubated for 24 hrs by MTT assay; format: functional, cell-based; conditions: MIA PaCa-2, 24 h
[22] = test system: B16; experiment: Cytotoxicity against mouse B16 cells assessed as inhibition of cell growth incubated for 10 days by crystal violet staining based assay; format: functional; conditions: B16, 240 h
[23] = test system: A549; experiment: Antiproliferative activity against human A549 cells assessed as cell growth inhibition incubated for 48 hrs by MTT assay; format: functional, cell-based; conditions: A549, 48 h
[24] = test system: OVCAR-3; experiment: Cytotoxicity against human OVCAR-3 cells assessed as reduction in cell viability incubated for 48 hrs by MTT assay; format: functional, cell-based; conditions: OVCAR-3, 48 h
[25] = test system: MCF7; experiment: Cytotoxicity against human MCF7 cells assessed as reduction in cell viability incubated for 48 hrs by MTT assay; format: functional, cell-based; conditions: MCF7, 48 h
[26] = Cytotoxicity against human MRC5 cells assessed as reduction in cell viability incubated for 48 hrs by MTT assay; format: toxicity, cell-based
[27] = test system: HL-60; experiment: Cytotoxicity against human HL-60 cells assessed as inhibition of cell growth incubated for 5 days; format: functional, cell-based; conditions: HL-60, 120 h
[28] = test system: OVCAR-3; experiment: Cytotoxicity against human OVCAR-3 cells assessed as reduction in cell viability incubated for 24 hrs by MTT assay; format: functional, cell-based; conditions: OVCAR-3, 24 h
[29] = test system: LOX IMVI; experiment: Antiproliferative activity against human LOX IMVI cells assessed as cell growth inhibition incubated for 72 hrs by Beckman Coulter counting method; format: functional, cell-based
[30] = Antiproliferative activity against human HEK cells assessed as cell growth inhibition incubated for 72 hrs by Beckman Coulter counting method; format: toxicity, cell-based
[31] = test system: Caco-2; experiment: Cytotoxicity against human Caco-2 cells assessed as reduction in cell viability incubated for 48 hrs by MTT assay; format: functional, cell-based; conditions: Caco-2, 48 h
[32] = test system: MCF7; experiment: Cytotoxicity against human MCF7 cells assessed as reduction in cell viability at 100 uM incubated for 24 hrs by MTT assay relative to control; format: functional
[33] = test system: HCT-116; experiment: Antiproliferative activity against human HCT-116 cells assessed as cell growth inhibition incubated for 72 hrs by Beckman Coulter counting method; format: functional, cell-based; conditions: HCT-116, 72 h
[34] = test system: DU-145; experiment: Antiproliferative activity against human DU-145 cells assessed as reduction in cell viability incubated for 48 to 96 hrs by crystal violet staining assay; format: functional; conditions: time 48-96 hrs
[35] = Cytotoxicity against human MRC5 cells assessed as reduction in cell viability incubated for 72 hrs by MTT assay; format: toxicity, cell-based
[36] = test system: HCT-15; experiment: Antiproliferative activity against human HCT-15 cells assessed as cell growth inhibition incubated for 4 days by SRB assay; format: functional, cell-based; conditions: HCT-15, 96 h
[37] = test system: MIA PaCa-2; experiment: Antiproliferative activity against human MIA PaCa-2 cells assessed as cell growth inhibition incubated for 72 hrs by Beckman Coulter counting method; format: functional, cell-based; conditions: MIA PaCa-2, 72 h
[38] = test system: MIA PaCa-2; experiment: Cytotoxicity against human MIA PaCa-2 cells assessed as reduction in cell viability incubated for 72 hrs by MTT assay; format: functional, cell-based; conditions: MIA PaCa-2, 72 h
[39] = test system: MRC5; experiment: Cytotoxicity against human MRC5 cells assessed as reduction in cell viability at 100 uM incubated for 24 hrs by MTT assay relative to control; format: toxicity, cell-based; conditions: mrc5, 24 h
[40] = test system: HeLa; experiment: Cytotoxicity against human HeLa cells assessed as reduction in cell viability at 100 uM incubated for 24 hrs by MTT assay relative to control; format: functional

- IC50 [3]: 4.3 µM
- IC50 [6]: 0.8 µM
- IC50 [8]: 1.6 µM
- IC50 [12]: 0.16 µM
- IC50 [13]: 4.3 µM
- IC50 [19]: 0.16 µM
- IC50 [23]: 10.5 µM
- IC50 [33]: 0.16 µM
- IC50 [36]: 12.3 µM
- IC50 [37]: 0.16 µM
Compound: OC[C@H]1O[C@@H](n2cnc3c(NCc4ccco4)ncnc32)[C@H](O)[C@@H]1O [KINETIN RIBOSIDE]
- IC50 at 24 h [1]: 18 µM
- IC50 [2]: 2.7 µM
- IC50 [4]: 88 µM
- IC50 [5]: 1.5 µM
- IC50 [7]: 16.1 µM
- IC50 [9]: 0.16 µM
- IC50 [10]: > 100 µM
- IC50 [11]: > 100 µM
- IC50 [14]: 3.1 µM
- IC50 at 72 h [15]: 0.18 µM
- IC50 [16]: 3.1 µM
- IC50 [17]: > 100 µM
- Activity [18]: 85%
- IC50 [20]: 23.5 µM
- IC50 [21]: > 100 µM
- IC50 [22]: 0.2 µM
- IC50 [24]: 7.8 µM
- IC50 [25]: 2.8 µM
- IC50 at 48 h [26]: 2.5 µM
- IC50 [27]: 0.98 µM
- IC50 [28]: > 100 µM
- IC50 [29]: 0.16 µM
- IC50 at 72 h [30]: 0.11 µM
- IC50 [31]: 42 µM
- Activity [32]: ~80%
- Activity [34]: 35%
- IC50 at 72 h [35]: 1.7 µM
- IC50 [38]: 2.6 µM
- Activity [39]: ~ 80%
- Activity [40]: ~30%

Compound: OC[C@H]1O[C@@H](n2cnc3c(NCc4ccco4)ncnc32)[C@@H](O)[C@@H]1O
- IC50 at 24 h [1]: > 100 µM
- IC50 [2]: > 100 µM
- IC50 [4]: > 100 µM
- IC50 [7]: > 100 µM
- IC50 [10]: > 100 µM
- IC50 [11]: > 100 µM
- IC50 [14]: > 100 µM
- IC50 [16]: > 100 µM
- IC50 [17]: > 100 µM
- IC50 [20]: > 100 µM
- IC50 [21]: > 100 µM
- IC50 [24]: > 100 µM
- IC50 [25]: > 100 µM
- IC50 at 48 h [26]: > 100 µM
- IC50 [28]: > 100 µM
- IC50 [31]: > 100 µM
- IC50 at 72 h [35]: > 100 µM
- IC50 [38]: > 100 µM

Compound: OC[C@H]1O[C@@H](n2cnc3c(NCc4cccs4)ncnc32)[C@H](O)[C@@H]1O
- IC50 at 24 h [1]: 12.7 µM
- IC50 [2]: 2.6 µM
- IC50 [4]: 16.9 µM
- IC50 [7]: 20.8 µM
- IC50 [10]: > 100 µM
- IC50 [11]: > 100 µM
- IC50 [14]: 1.2 µM
- IC50 [16]: 1.5 µM
- IC50 [17]: > 100 µM
- IC50 [20]: 5.9 µM
- IC50 [21]: > 100 µM
- IC50 [24]: 2.9 µM
- IC50 [25]: 3 µM
- IC50 at 48 h [26]: 2.1 µM
- IC50 [28]: > 100 µM
- IC50 [31]: 10.5 µM
- IC50 at 72 h [35]: 1.8 µM
- IC50 [38]: 1.1 µM

Compound: OC[C@H]1O[C@@H](n2nnc3c(NCc4ccco4)ncnc32)[C@H](O)[C@@H]1O
- IC50 at 24 h [1]: > 100 µM
- IC50 [2]: 3.8 µM
- IC50 [4]: 25 µM
- IC50 [7]: 27 µM
- IC50 [10]: 14.5 µM
- IC50 [11]: > 100 µM
- IC50 [14]: 2.8 µM
- IC50 [16]: 1.1 µM
- IC50 [17]: 4.6 µM
- IC50 [20]: 11.5 µM
- IC50 [21]: > 100 µM
- IC50 [24]: 76 µM
- IC50 [25]: 4.3 µM
- IC50 at 48 h [26]: 11.7 µM
- IC50 [28]: > 100 µM
- IC50 [31]: 18.7 µM
- IC50 at 72 h [35]: 4.6 µM
- IC50 [38]: 1.1 µM
